Assay [1] deals with T1, JAK2 JH2 WT (V536-D812) [W659A, W777A, F794H solubilizing mutations] (Homo sapiens, UniProt O60674, F794H/W659A/W777A).
T1 construct: **JAK2 JH2 WT (V536-D812) [W659A, W777A, F794H solubilizing mutations]; C-thrombin-avi-His6; thrombin cleavage site (C); His6 (C); purchased Biortus
The assay can be described thus: Surface Plasmon Resonance (SPR) binding assay, JAK2 JH2 domain. A digest of the protocol:
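Kinetics came from 1:1 fits of single-cycle runs at 20 °C: four 3-fold dilutions from 5 uM for JH1 or 500 nM for JH2, 60 s association, and 300 s or 1200 s dissociation respectively. Protein was freshly captured per compound in the presence of 10 uM stabilizer compound, with running buffer of pH 7.5 HEPES/NaCl/glycerol/DTT plus 2% DMSO.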

Assay [2] deals with TF1 JAK2 V617F STAT3 reporter. The experiment in a line: Cellular TF1 STAT3 assay (luciferase reporter), JAK2 V617F. It is filed as cell-based. The settings on record: read-out: Cell PD-TF1 JAK2 V617F STAT3 (IC50). Put shortly: (§1)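 TF1 V617F JAK2 reporter cells, 10k/well; 10-pt 1:3 dose response from 10 mM 1000× DMSO stock; 18-20 h, 37 °C, 5% CO2; ONE-glo, 10 min RT; luminescence. Triplicate plates, DMSO vehicle.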
(Reporter assays use an easily measured gene product as a stand-in for the process of interest.)

The test system of assay [3] is TF1 JAK2 V617F STAT5 reporter. The experiment in a line: Cellular TF1 STAT5 assay (luciferase reporter), JAK2 V617F. It is filed as cell-based. The settings on record: read-out: Cell PD TF1 V617F STAT5 (IC50). A digest of the protocol: as §1
Where [4] appears, read: Homo sapiens, TF-1, TF1 cells, JAK2 V617F.

Our source for the Kd and IC50 values is patent US20240368122A1, “JAK2 INHIBITORS AND METHODS OF USE THEREOF” (RELAY THERAPEUTICS, INC., priority 2021, published 2024).

Like-named read-outs stand apart in the source and are kept apart here.

T1 sequence (O60674 536-812 W659A/W777A/F794H): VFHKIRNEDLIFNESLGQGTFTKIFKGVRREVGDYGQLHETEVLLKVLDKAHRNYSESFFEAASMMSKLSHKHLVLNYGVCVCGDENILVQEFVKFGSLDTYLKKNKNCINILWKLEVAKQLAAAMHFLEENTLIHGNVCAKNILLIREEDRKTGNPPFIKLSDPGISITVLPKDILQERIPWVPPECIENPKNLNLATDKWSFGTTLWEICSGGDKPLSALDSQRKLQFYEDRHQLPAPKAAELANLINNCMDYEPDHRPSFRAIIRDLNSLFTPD

Take `CNC(=O)c1nnc(NC(=O)C2CC2)cc1Nc1cccc(-c2ccc(C3CN(Cc4cccc(C#N)n4)C3)c(OC)c2)c1OC` [Compound 361]: the Kd in assay [1] is 50 to 500 nM. For the same compound, the IC50 in assay [2] (setting [4]) was in the range of 5000 to 100000 nM; in assay [3] (setting [4]) it was 500 to 5000 nM.
Taken in the same sequence, the figures for `CNC(=O)c1nnc(NC(=O)C2CC2)cc1Nc1cccc(-c2cnn(C3CN(Cc4cccnc4C#N)C3)c2)c1OC` [Compound 212] were 0.01 to 10 nM, 50 to 500 nM and 50 to 500 nM.
`CNC(=O)c1nnc(NC(=O)C2CC2)cc1Nc1cccc(-c2ccc(C(=O)N(C)Cc3cnn(C4CC4)c3C)nc2)c1OC` [Compound 284] displayed a Kd in assay [1] of 0.01 to 10 nM. For the same compound, the IC50 in assay [2] (setting [4]) and in assay [3] (setting [4]) was 500 to 5000 nM each time.
`CNC(=O)c1nnc(NC(=O)C2CC2)cc1Nc1cccc(-c2cnn(C3CN(Cc4cccc(COC)n4)C3)c2)c1OC` [Compound 216] yielded a Kd in assay [1] of 0.01 to 10 nM. Further, the IC50 in assay [2] (setting [4]) and in assay [3] (setting [4]) was 50 to 500 nM each time.
In assay [1] (SPR, JAK2 JH2 domain), `CNC(=O)c1nnc(NC(=O)C2CC2)cc1Nc1cccc(-c2ccc(C(=O)N(C)Cc3ccns3)nc2)c1OC` [Compound 59] yielded a Kd of 0.01 to 10 nM. In addition, the IC50 in assay [2] (TF1 JAK2 V617F) fell in the range of 500 to 5000 nM; in assay [3] (TF1 JAK2 V617F) it was 5000 to 100000 nM.
Compound `CNC(=O)c1nnc(NC(=O)C2CC2)cc1Nc1cccc(-c2cnn(C3CN(Cc4cccc(C5(O)COC5)n4)C3)c2)c1OC` [Compound 382] returned a dissociation constant Kd in assay [1] of 0.01 to 10 nM. Besides, the IC50 in assay [2] (setting [4]) and in assay [3] (setting [4]) was 50 to 500 nM throughout.
For `CNC(=O)c1nnc(NC(=O)C2CC2)cc1Nc1cccc(-c2cnn(C3CN(Cc4cccc5ccnn45)C3)c2)c1OC` [Compound 287], the Kd in assay [1] lay in the range of 0.01 to 10 nM. For the same compound, the IC50 in assay [2] (setting [4]) and in assay [3] (setting [4]) was 50 to 500 nM in each case.
In the case of `CNC(=O)c1nnc(NC(=O)C2CC2)cc1Nc1cccc(-c2ccc(C3CN(Cc4ccn(C)n4)C3)nc2)c1OC` [Compound 263], the Kd in assay [1] lay within 10 to 50 nM. In addition, the IC50 in assay [2] (setting [4]) and in assay [3] (setting [4]) was 5000 to 100000 nM throughout.
`CNC(=O)c1nnc(NC(=O)C2CC2)cc1Nc1cccc(-c2cnn(C3CN(Cc4cccc(C5(C#N)CCC5)n4)C3)c2)c1OC` [Compound 290] yielded a Kd in assay [1] of 0.01 to 10 nM. For the same compound, the IC50 in assay [2] (setting [4]) and in assay [3] (setting [4]) was 50 to 500 nM in each case.
`CNC(=O)c1nnc(NC(=O)C2CC2)cc1Nc1cccc(-c2cnn(C3CN(Cc4cccc(C(=O)N5CCC(C(F)(F)F)C5)n4)C3)c2)c1OC` (stereo not drawn) [Compound 358] came in with a Kd in assay [1] of 0.01 to 10 nM. For the same compound, the IC50 in assay [2] (setting [4]) and in assay [3] (setting [4]) was 50 to 500 nM each time.
For `CNC(=O)c1nnc(NC(=O)OC2CC2)cc1Nc1cccc(-c2cnn(C3CN(Cc4ccccn4)C3)c2)c1OC` [Compound 342], in assay [1], the Kd was 0.01 to 10 nM. Moreover, the IC50 in assay [2] (setting [4]) and in assay [3] (setting [4]) was 500 to 5000 nM throughout.
`CNC(=O)c1nnc(NC(=O)C2CC2)cc1Nc1cccc(-c2cn([C@H]3CN(Cc4cccc(Cl)n4)[C@@H]3C)nn2)c1OC` (stereo in doubt) [Compound 236]: the Kd in assay [1] lay within 0.01 to 10 nM. For the same compound, the IC50 in assay [2] (setting [4]) and in assay [3] (setting [4]) was 50 to 500 nM each time.
Regarding `CNC(=O)c1nnc(NC(=O)C2CC2)cc1Nc1cccc(-c2cnn(C3CN([C@@H](C)c4ccccn4)C3)c2)c1OC` (single isomer, unassigned) [Compound 162], the Kd in assay [1] (SPR, JAK2 JH2 domain) lay in the range of 0.01 to 10 nM. Also, the results for the IC50 in assay [2] (TF1 JAK2 V617F) and in assay [3] (TF1 JAK2 V617F) were 50 to 500 nM and 500 to 5000 nM, respectively.

Broadly, the Kd is the concentration at which binding is half-saturated. The term IC50 denotes the concentration that inhibits the measured activity by half.
